# Laboratory results: ChEMBL document CHEMBL3526158, “Contributions of arylacetamide deacetylase and carboxylesterase 2 to flutamide hydrolysis in human liver” (Drug Metab Dispos, 2012)
# Key:
# Cocaine esterase [1] = molecular target: T1, Cocaine esterase (Homo sapiens, UniProt O00748); test: Drug metabolism assessed as human recombinant CES2-mediated compound hydrolysis at 2 uM; format: ADME; settings: recombinant enzyme
# T1 sequence (O00748 whole entry): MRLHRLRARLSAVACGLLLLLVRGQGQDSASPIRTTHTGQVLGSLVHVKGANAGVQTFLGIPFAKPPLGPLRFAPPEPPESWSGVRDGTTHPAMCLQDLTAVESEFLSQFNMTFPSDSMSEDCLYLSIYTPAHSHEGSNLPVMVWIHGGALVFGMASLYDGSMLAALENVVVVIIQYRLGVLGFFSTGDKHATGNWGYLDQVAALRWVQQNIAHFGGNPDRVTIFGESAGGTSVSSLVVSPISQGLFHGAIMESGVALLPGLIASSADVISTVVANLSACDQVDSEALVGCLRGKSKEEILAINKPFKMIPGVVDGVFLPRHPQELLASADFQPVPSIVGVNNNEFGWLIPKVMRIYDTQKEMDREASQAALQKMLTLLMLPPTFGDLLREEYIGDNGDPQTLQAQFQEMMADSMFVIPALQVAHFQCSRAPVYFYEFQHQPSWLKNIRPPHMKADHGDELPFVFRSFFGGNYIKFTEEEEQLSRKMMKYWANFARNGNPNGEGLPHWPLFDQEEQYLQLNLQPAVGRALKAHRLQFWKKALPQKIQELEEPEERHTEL
# [2] = molecular target: T2, Arylacetamide deacetylase (Homo sapiens, UniProt P22760); test: Drug metabolism assessed as human recombinant AADAC-mediated compound hydrolysis expressed in SF21 cells at 50 uM; format: ADME; settings: sf21, 50 µM
# T2 sequence (P22760 whole entry): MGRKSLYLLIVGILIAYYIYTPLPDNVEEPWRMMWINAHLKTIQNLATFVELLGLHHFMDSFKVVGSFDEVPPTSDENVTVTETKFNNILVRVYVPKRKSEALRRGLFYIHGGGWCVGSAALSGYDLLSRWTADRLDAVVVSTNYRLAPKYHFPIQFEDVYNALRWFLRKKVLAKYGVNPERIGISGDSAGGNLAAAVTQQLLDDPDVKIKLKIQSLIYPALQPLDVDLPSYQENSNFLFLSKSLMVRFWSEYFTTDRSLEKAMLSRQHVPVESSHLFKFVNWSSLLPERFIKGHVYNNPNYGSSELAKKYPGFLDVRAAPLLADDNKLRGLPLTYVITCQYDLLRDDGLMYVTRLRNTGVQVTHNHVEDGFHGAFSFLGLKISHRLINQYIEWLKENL
# [3] = molecular target: T3, AADAC (arylacetamide deacetylase) (Homo sapiens, UniProt P22760); test: Drug metabolism assessed as loperamide-mediated inhibition of human recombinant AADAC-mediated compound hydrolysis expressed in SF21 cells measured as enzyme activity at 5 uM relative to control; format: ADME; parameters: scale not given: the % may be the effect or the level left; settings: with loperamide (concentration not clearly stated), read-out: Activity
# T3 sequence (P22760 whole entry): T2 sequence (P22760 whole entry)
# Cocaine esterase [4] = molecular target: T1, Cocaine esterase; test: Drug metabolism assessed as loperamide-mediated inhibition of CES2-mediated compound hydrolysis in human jejunum microsomes at 5 uM relative to control; format: ADME; parameters: scale not given: the % may be the effect or the level left
# [5] = molecular target: T3, AADAC (arylacetamide deacetylase); test: Drug metabolism assessed as AADAC-mediated compound hydrolysis in human liver homogenates at 200 uM; format: ADME, tissue-based; settings: read-out: Drug metabolism
# CES2 (cocaine esterase) [6] = molecular target: T4, CES2 (cocaine esterase) (Homo sapiens, UniProt O00748); test: Drug metabolism assessed as loperamide-mediated inhibition of human recombinant CES2-mediated compound hydrolysis measured as enzyme activity at 5 uM relative to control; format: ADME; parameters: scale not given: the % may be the effect or the level left; settings: recombinant CES2, with loperamide (concentration not clearly stated), read-out: Activity
# T4 sequence (O00748 whole entry): T1 sequence (O00748 whole entry)
# Liver carboxylesterase 1 = molecular target: T5, Liver carboxylesterase 1 (Homo sapiens, UniProt P23141); test: Drug metabolism assessed as human recombinant CES1-mediated compound hydrolysis at 5 uM; format: ADME; settings: recombinant enzyme
# T5 sequence (P23141 whole entry): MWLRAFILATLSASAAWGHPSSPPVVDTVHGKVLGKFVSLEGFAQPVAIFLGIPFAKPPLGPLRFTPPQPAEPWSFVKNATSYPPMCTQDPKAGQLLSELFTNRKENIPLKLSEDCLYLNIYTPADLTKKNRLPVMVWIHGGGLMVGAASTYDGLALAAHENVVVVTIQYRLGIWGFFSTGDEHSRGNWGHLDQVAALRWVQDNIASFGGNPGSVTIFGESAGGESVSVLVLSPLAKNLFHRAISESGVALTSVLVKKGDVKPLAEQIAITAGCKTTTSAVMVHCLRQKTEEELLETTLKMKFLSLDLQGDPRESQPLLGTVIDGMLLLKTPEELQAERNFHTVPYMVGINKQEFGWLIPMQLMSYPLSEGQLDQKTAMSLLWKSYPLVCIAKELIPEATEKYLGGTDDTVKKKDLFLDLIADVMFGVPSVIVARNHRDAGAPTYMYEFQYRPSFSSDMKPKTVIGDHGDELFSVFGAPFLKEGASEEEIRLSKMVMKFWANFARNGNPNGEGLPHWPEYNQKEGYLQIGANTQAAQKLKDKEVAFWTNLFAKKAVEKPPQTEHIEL
# Cocaine esterase [7] = molecular target: T1, Cocaine esterase; test: Drug metabolism assessed as loperamide-mediated inhibition of CES2-mediated compound hydrolysis in human liver microsomes at 5 uM relative to control; format: ADME; parameters: scale not given: the % may be the effect or the level left
# CES2 (cocaine esterase) [8] = molecular target: T4, CES2 (cocaine esterase); test: Drug metabolism assessed as CES2-mediated compound hydrolysis in human liver homogenates at 50 uM; format: ADME, tissue-based; settings: read-out: Drug metabolism
# CES2 (cocaine esterase) [9] = molecular target: T4, CES2 (cocaine esterase); test: Drug metabolism assessed as CES2-mediated compound hydrolysis in human liver homogenates at 200 uM; format: ADME, tissue-based; settings: read-out: Drug metabolism
# Cocaine esterase [10] = molecular target: T1, Cocaine esterase; test: Drug metabolism assessed as human recombinant CES2-mediated compound hydrolysis at 5 uM; format: ADME; settings: recombinant enzyme
# [11] = molecular target: T2, Arylacetamide deacetylase; test: Drug metabolism assessed as human recombinant AADAC-mediated compound hydrolysis at 5 uM; format: ADME
# [12] = molecular target: T3, AADAC (arylacetamide deacetylase); test: Drug metabolism assessed as AADAC-mediated compound hydrolysis in human liver homogenates at 50 uM; format: ADME, tissue-based; settings: read-out: Drug metabolism
# Cocaine esterase [13] = molecular target: T1, Cocaine esterase; test: Drug metabolism assessed as human recombinant CES2-mediated compound hydrolysis at 200 uM; format: ADME; settings: recombinant enzyme
# Cocaine esterase [14] = molecular target: T1, Cocaine esterase; test: Drug metabolism assessed as CES2-mediated compound hydrolysis in human liver homogenates at 5 to 200 uM; format: ADME, tissue-based; settings: tissue homogenate
# Cocaine esterase [15] = molecular target: T1, Cocaine esterase; test: Drug metabolism assessed as human recombinant CES2-mediated compound hydrolysis at 50 uM; format: ADME; settings: recombinant enzyme
# Cocaine esterase [16] = molecular target: T1, Cocaine esterase; test: Drug metabolism assessed as loperamide-mediated inhibition of CES2-mediated compound hydrolysis in human liver cytosol at 5 uM relative to control; format: ADME, tissue-based; parameters: scale not given: the % may be the effect or the level left
# Cocaine esterase [17] = molecular target: T1, Cocaine esterase; test: Inhibition of human recombinant CES2 assessed as compound hydrolysis
# Cocaine esterase [18] = molecular target: T1, Cocaine esterase; test: Intrinsic clearance assessed as ratio of Vmax to Km for human recombinant CES2; format: ADME; settings: recombinant enzyme
# [19] = molecular target: T2, Arylacetamide deacetylase; test: Drug metabolism assessed as human recombinant AADAC-mediated compound hydrolysis at 200 uM; format: ADME
# [20] = molecular target: T3, AADAC (arylacetamide deacetylase); test: Drug metabolism assessed as AADAC-mediated compound hydrolysis in human liver homogenates at 5 to 200 uM; format: ADME, tissue-based; settings: read-out: Drug metabolism
# CES2 (cocaine esterase) [21] = molecular target: T4, CES2 (cocaine esterase); test: Drug metabolism assessed as CES2-mediated compound hydrolysis in human liver homogenates at 5 uM; format: ADME, tissue-based; settings: read-out: Drug metabolism
# [22] = molecular target: T3, AADAC (arylacetamide deacetylase); test: Drug metabolism assessed as AADAC-mediated compound hydrolysis in human liver homogenates at 5 uM; format: ADME, tissue-based; settings: read-out: Drug metabolism
smiles,measurement,setting,value
CO[C@H]1/C=C/O[C@@]2(C)Oc3c(C)c(O)c4c(O)c(c(/C=N/N5CCN(C)CC5)c(O)c4c3C2=O)NC(=O)/C(C)=C\C=C\[C@H](C)[C@H](O)[C@@H](C)[C@@H](O)[C@@H](C)[C@H](OC(C)=O)[C@@H]1C [RIFAMPIN],Drug metabolism,Cocaine esterase [1],2.99 pmol/min/mg
same,Drug metabolism,[2],41.77 pmol/min/mg
CC(C)C(=O)Nc1ccc([N+](=O)[O-])c(C(F)(F)F)c1 [FLUTAMIDE],activity at 5 µM,[3],74.7%
same,Activity,Cocaine esterase [4],18.6%
same,metabolised at 200 µM,[5],89.4%
same,activity at 5 µM,CES2 (cocaine esterase) [6],7.7%
same,Drug metabolism,Liver carboxylesterase 1,metabolite_not_detected
same,Activity,Cocaine esterase [7],22.9%
same,metabolised at 50 µM,CES2 (cocaine esterase) [8],47%
same,metabolised at 200 µM,CES2 (cocaine esterase) [9],10.6%
same,Drug metabolism,Cocaine esterase [10],16 pmol/min/mg
same,Drug metabolism,[11],3.1 pmol/min/mg
same,metabolised at 50 µM,[12],53%
same,Drug metabolism,Cocaine esterase [13],13.5 pmol/min/mg
same,Drug metabolism,Cocaine esterase [14],170.4%
same,Drug metabolism,Cocaine esterase [15],38.9 pmol/min/mg
same,Activity,Cocaine esterase [16],15.7%
same,Ki,Cocaine esterase [17],2300 nM
same,Ratio,Cocaine esterase [18],4.2 µL/min/mg
same,Drug metabolism,[19],389 pmol/min/mg
same,metabolised at up to 200 µM,[20],79.6%
same,Drug metabolism,[2],87.6 pmol/min/mg
same,metabolised at 5 µM,CES2 (cocaine esterase) [21],88.3%
same,metabolised at 5 µM,[22],11.7%
